{
  "source": "patent US9056069B2",
  "about": "“Cancer therapy based on tumor associated antigens derived from cyclin D1” (IMMATICS BIOTECHNOLOGIES GMBH, priority 2010, dated 2015)",
  "key": {"[1]": {"test_system": "mRCC", "type": "in vivo, human", "from_the_text": "Some patients received a prior TKI therapy with sunitinib or sorafenib, others a prior cytokine therapy with interferon or interleukin.\nBoth patient groups were followed up for progression-free survival (PFS) and overall survival (OS)."}, "[2]": {"test_system": "HLA-A*02 positive tumor cells endogenously expressing Cyclin D1", "conditions": "allo-restricted T cells of HLA-A2-negative donors; cited from earlier work"}, "[3]": {"test_system": "CTL", "conditions": "healthy donors, colon cancer and mantle cell lymphoma patients; autologous CD40-activated B cells as APCs; cited from earlier work"}, "[4]": {"test_system": "HLA class-II", "experiment": "Binding to HLA class-II", "design": "species or system human"}},
  "note": "“Also recorded” adds a separate entry of the source.",
  "data": [
    {"compound": "O=P1(N(CCCl)CCCl)NCCCO1", "note": "(stereo not shown) [cyclophosphamide]", "values": [
      {"measurement": "effect of prior low-dose cyclophosphamide treatment on outcome of vaccine treatment", "setting": "[1]; cyclophosphamide 300 mg/m2 single infusion before vaccination", "result": "further significantly improved the outcome"}
    ]},
    {"compound": "LLGATCMFV (listed as Homo sapiens) [CCN-001, cyclin D1-derived peptide, aa 101-109]", "values": [
      {"measurement": "lysis of tumor cells by T cell clones recognizing the peptide", "setting": "[2]", "result": "could lyse HLA-A*02 positive tumor cells endogenously expressing Cyclin D1"},
      {"measurement": "survival of patients responding against CCN-001 versus non-CCN-001-responding patients", "setting": "[1]; all vaccinated patients", "result": "significant longer survival; also recorded: survive significantly longer"},
      {"measurement": "favorable effect of T cell response against CCN-001 on survival", "setting": "[1]; patient group pretreated with cyclophosphamide", "result": "even more evident"},
      {"measurement": "generation of epitope-specific CTL", "setting": "[3]", "result": "could be generated from HLA-A2+ donors"}
    ]},
    {"compound": "NPPSMVAAGSVVAAV (listed as Homo sapiens) [CCN-003, cyclin D1-derived peptide, aa 198-212]", "values": [
      {"measurement": "HLA restriction", "setting": "[4]", "result": "appears DRB1*0401 restricted"},
      {"measurement": "binding to HLA class-II", "setting": "[4]", "result": "binds to HLA class-II"}
    ]}
  ]
}
